Key:
SIK2 [1] = molecular target: T1, SIK2 (Homo sapiens, UniProt Q9H0K1); assay: SIK2 Enzymatic Assay Version 1 (ADP Glo); assay type: biochemical; settings: enzyme 0.6 nM, 160 μM ATP and 140 μM HDAC5tide (each 2× final concentration); 30 minutes pre-incubation, 4 hours; ADPGlo luminescence; read-out: SIK2 ADP Glo IC50 (μM) (Test Example 1)
Description: All steps were performed at room temperature. Compounds were pre-plated onto an assay plate using an Echo acoustic dispenser (Labcyte, E550 or E555) at 20 nL per well. Enzyme prepared in Assay Buffer at 0.6 nM (2× final concentration) was added at 2 μL per well using the Multidrop Combi (Thermo Fisher—used for all additions in this assay) to the assay plate, spun for 1 min at 800-850 rpm (Allegra 6KR Beckman Coulter centrifuge), and incubated with compound for 30 minutes.
One column of wells was dedicated to a no-peptide negative control (containing only ATP). ADPGlo Reagent (prepared and aliquoted as per manufacturer instructions) was then added at 2 μL per well, spun and incubated for 40 min. ADPGlo Detection (prepared and aliquoted as per manufacturer instructions) was added at 2 μL per well to the assay plate, which was spun and incubated for at least 30 min. The plate was then read on the Pherastar (BMG Labtech) using a luminescence read. Gain was set by the 0.1 mM concentration of ADP wells in the ADP/ATP standard curve plate generated as per manufacturer instructions.

SIK2 [2] = molecular target: T1, SIK2; assay: SIK2 Enzymatic Assay High Version 2 (High ATP); assay type: biochemical
Method in brief: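 At room temperature, enzyme (6 nM, 2× final) was preincubated with compound for 30 min, then 6 mM ATP and 400 μM HDAC5tide (both 2× final) were added for 2 h. ADP formed was measured by ADP-Glo Max (2 h reagent, 1 h detection) using luminescence.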

T1 sequence (Q9H0K1 whole entry, species assumed): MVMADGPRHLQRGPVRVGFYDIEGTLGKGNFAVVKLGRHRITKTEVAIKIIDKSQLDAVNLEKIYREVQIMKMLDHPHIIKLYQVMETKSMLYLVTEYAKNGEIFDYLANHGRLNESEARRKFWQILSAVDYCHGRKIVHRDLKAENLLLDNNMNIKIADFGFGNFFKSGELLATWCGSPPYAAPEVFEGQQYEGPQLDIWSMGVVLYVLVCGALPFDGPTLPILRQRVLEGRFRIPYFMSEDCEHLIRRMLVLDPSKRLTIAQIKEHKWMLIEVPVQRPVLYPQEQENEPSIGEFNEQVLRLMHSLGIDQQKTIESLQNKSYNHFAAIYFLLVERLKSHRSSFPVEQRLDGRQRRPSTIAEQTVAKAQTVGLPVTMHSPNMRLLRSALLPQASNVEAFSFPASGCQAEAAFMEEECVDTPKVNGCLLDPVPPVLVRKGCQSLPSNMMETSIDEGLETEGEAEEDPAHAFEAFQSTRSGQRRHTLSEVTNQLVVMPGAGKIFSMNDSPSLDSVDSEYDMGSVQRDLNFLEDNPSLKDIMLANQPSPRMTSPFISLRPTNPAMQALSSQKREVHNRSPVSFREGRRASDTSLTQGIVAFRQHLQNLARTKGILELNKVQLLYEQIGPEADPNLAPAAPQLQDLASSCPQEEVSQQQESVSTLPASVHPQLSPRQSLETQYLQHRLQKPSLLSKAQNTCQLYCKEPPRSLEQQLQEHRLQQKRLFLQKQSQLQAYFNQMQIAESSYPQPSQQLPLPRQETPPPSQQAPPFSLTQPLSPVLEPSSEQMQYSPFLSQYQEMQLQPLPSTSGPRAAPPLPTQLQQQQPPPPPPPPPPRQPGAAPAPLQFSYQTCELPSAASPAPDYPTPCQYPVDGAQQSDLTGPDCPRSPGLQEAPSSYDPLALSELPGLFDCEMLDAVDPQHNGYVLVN

| IC50 (SIK2 [1]) | IC50 (SIK2 [2]) | Structure (SMILES) |
| --- | --- | --- |
| 0.000382 µM | 4.73 nM | Cc1cc(-c2ccn3nc(NC(=O)C4CC4)cc3c2)c(OC[C@@H]2CN[C@H](C)CO2)cn1 [Example 168, N-[5-[2-methyl-5-[[(2S,5R)-5-methylmorpholin-2-yl]methoxy]-4-pyridyl]pyrazolo[1,5-a]pyridin-2-yl]cyclopropanecarboxamide] |
| 0.00356 µM | 81.5 nM | N#Cc1cc(-c2ccn3nc(NC(=O)C4CC4)cc3c2)c(O[C@@H]2CCN(Cc3ccccn3)C2)cn1 [Example 112, (R)—N-[5-[2-cyano-5-[(3R)-1-(2-pyridylmethyl)pyrrolidin-3-yl]oxy-4-pyridyl]pyrazolo[1,5-a]pyridin-2-yl]cyclopropanecarboxamide] |
| 0.00125 µM | 14.6 nM | N#CCN[C@H]1C[C@@H](COc2cnc(C#N)cc2-c2ccn3nc(NC(=O)C4CC4)cc3c2)C1 [Example 596, N-[5-[2-cyano-5-[[3-(cyanomethylamino)cyclobutyl]methoxy]-4-pyridyl]pyrazolo[1,5-a]pyridin-2-yl]cyclopropanecarboxamide] |
| 0.00044 µM | 4.5 nM | CN1CC[C@H](Oc2cnc(C#N)cc2-c2ccn3nc(NC(=O)C4CC4)cc3c2)C[C@@H]1C(F)(F)F (relative stereo) [Example 30, N-(5-(2-cyano-5-(((2*R,4*S)-1-methyl-2-(trifluoromethyl)piperidin-4-yl)oxy)pyridin-4-yl)pyrazolo[1,5-a]pyridin-2-yl)cyclopropanecarboxamide] |
| 0.00095 µM | 8.63 nM | N#Cc1cc(-c2ccn3nc(NC(=O)C4CC4)cc3c2)c(OC[C@H]2CC[C@H](N)CC2)cn1 [Example 586, N-(5-(5-(((1r,4r)-4-aminocyclohexyl)methoxy)-2-cyanopyridin-4-yl)pyrazolo[1,5-a]pyridin-2-yl)cyclopropanecarboxamide] |
| 0.00106 µM | 12.1 nM | CC#Cc1cc(-c2ccn3nc(NC(=O)C4CC4)cc3c2)c(OC[C@@H]2CCN(C)C2)cn1 [Example 441, N-[5-[5-[[(3R)-1-methylpyrrolidin-3-yl]methoxy]-2-prop-1-ynyl-4-pyridyl]pyrazolo[1,5-a]pyridin-2-yl]cyclopropanecarboxamide] |
| 0.0141 µM | 185 nM | N#Cc1cc(-c2ccn3nc(NC(=O)C4CC4)cc3c2)c(OC2CC2)cn1 [Example 46, N-[5-[2-Cyano-5-(cyclopropoxy)-4-pyridyl]pyrazolo[1,5-a]pyridin-2-yl]cyclopropanecarboxamide] |
| 0.00416 µM | 93.1 nM | N#Cc1cc(-c2ccn3nc(NC(=O)C4CC4)cc3c2)c(OCC2CNC(=O)C2)cn1 (racemic) [Example 33, rac-N-(5-(2-cyano-5-((5-oxopyrrolidin-3-yl)methoxy)pyridin-4-yl)pyrazolo[1,5-a]pyridin-2-yl)cyclopropanecarboxamide] |
| 0.0095 µM | 159 nM | Cc1cc(-c2ccn3nc(NC(=O)C4CC4)cc3c2)c(OC2CN(C)C2)cn1 [Example 115, N-(5-(2-methyl-5-((1-methylazetidin-3-yl)oxy)pyridin-4-yl)pyrazolo[1,5-a]pyridin-2-yl)cyclopropanecarboxamide] |
| 0.00573 µM | 105 nM | CN1CC[C@@H](COc2ccc(C#N)cc2-c2ccn3nc(NC(=O)C4CC4)cc3c2)C1 [Example 100, N-[5-[5-cyano-2-[[(3R)-1-methylpyrrolidin-3-yl]methoxy]phenyl]pyrazolo[1,5-a]pyridin-2-yl]cyclopropanecarboxamide] |
| 0.00059 µM | 8.8 nM | Cc1cc(-c2ccn3nc(NC(=O)C4CC4)cc3c2)c(OC[C@@H]2CNC(C)(C)CO2)cn1 [Example 167, N-[5-[5-[[(2S)-5,5-dimethylmorpholin-2-yl]methoxy]-2-methyl-4-pyridyl]pyrazolo[1,5-a]pyridin-2-yl]cyclopropanecarboxamide] |
| 0.0036 µM | 69.2 nM | CC(=O)N1CCC(Oc2cnc(C#N)cc2-c2ccn3nc(NC(=O)C4CC4)cc3c2)C1 (single isomer, unassigned) [Example 56, (*R)—N-(5-(5-((1-Acetylpyrrolidin-3-yl)oxy)-2-cyanopyridin-4-yl)pyrazolo[1,5-a]pyridin-2-yl)cyclopropanecarboxamide] |
| 0.00321 µM | 55.9 nM | Cc1cc(-c2ccn3nc(NC(=O)C4CC4)cc3c2)c(OC[C@@H]2CCN(C)C2)cn1 [Example 509, N-[5-[2-methyl-5-[[(3R)-1-methylpyrrolidin-3-yl]methoxy]-4-pyridyl]pyrazolo[1,5-a]pyridin-2-yl]cyclopropanecarboxamide] |
| > 5 µM |  | N#Cc1cc(-c2ccn3nc(NC(=O)C4CC4)cc3c2)c(OCc2ccnc(C(F)(F)F)c2)cn1 [Example 62, N-[5-[2-cyano-5-[[2-(trifluoromethyl)-4-pyridyl]methoxy]-4-pyridyl]pyrazolo[1,5-a]pyridin-2-yl]cyclopropanecarboxamide] |
| 0.0217 µM |  | CCOc1ccccc1-c1ccn2nc(NC(=O)C3CC3)cc2c1 [Example 743, N-[5-(2-ethoxyphenyl)pyrazolo[1,5-a]pyridin-2-yl]cyclopropanecarboxamide] |
| 0.389 µM |  | Cn1cc(Nc2cnc(C#N)cc2-c2ccn3nc(NC(=O)C4CC4)cc3c2)cn1 [Example 79, N-[5-[2-cyano-5-[(1-methylpyrazol-4-yl)amino]-4-pyridyl]pyrazolo[1,5-a]pyridin-2-yl]cyclopropanecarboxamide] |
| 0.0846 µM |  | CNC(=O)C1CN(c2cnc(C#N)cc2-c2ccn3nc(NC(=O)C4CC4)cc3c2)C1 [Example 73, 1-[6-cyano-4-[2-(cyclopropanecarbonylamino)pyrazolo[1,5-a]pyridin-5-yl]-3-pyridyl]-N-methyl-azetidine-3-carboxamide] |
| 3.52 µM |  | COc1cc(C)ccc1-c1ccn2nc(NC(=O)C3CC3)cc2c1 [Example 745, N-[5-(2-methoxy-4-methyl-phenyl)pyrazolo[1,5-a]pyridin-2-yl]cyclopropanecarboxamide] |
| 0.417 µM |  | COc1ccccc1-c1ccn2nc(NC(=O)C3CC3)cc2c1 [Example 742, N-[5-(2-methoxyphenyl)pyrazolo[1,5-a]pyridin-2-yl]cyclopropanecarboxamide] |
| 0.0312 µM |  | COc1c(C)cccc1-c1ccn2nc(NC(=O)C3CC3)cc2c1 [Example 747, N-[5-(2-methoxy-3-methyl-phenyl)pyrazolo[1,5-a]pyridin-2-yl]cyclopropanecarboxamide] |
| 0.198 µM |  | COc1ccncc1-c1ccn2nc(NC(=O)C3CC3)cc2c1 [Example 751, N-[5-(4-methoxy-3-pyridyl)pyrazolo[1,5-a]pyridin-2-yl]cyclopropanecarboxamide] |

| Structure (SMILES) | IC50 (SIK2 [1]) | IC50 (SIK2 [2]) |
| --- | --- | --- |
| N#Cc1cc(-c2ccn3nc(NC(=O)C4CC4)cc3c2)c(O[C@H]2C[C@@H](CO)C2)cn1 [Example 69, N-[5-[2-cyano-5-[3-(hydroxymethyl)cyclobutoxy]-4-pyridyl]pyrazolo[1,5-a]pyridin-2-yl]cyclopropanecarboxamide] | 0.0028 µM | 38.3 nM |
| CO[C@H]1C[C@H](Oc2cnc(C)cc2-c2ccn3nc(NC(=O)C4CC4)cc3c2)C1 [Example 146, trans-N-[5-[5-(3-methoxycyclobutoxy)-2-methyl-4-pyridyl]pyrazolo[1,5-a]pyridin-2-yl]cyclopropanecarboxamide] | 0.0352 µM |  |

Reference: patent US20240158392A1 (Janssen Biotech, Inc., priority 2021, published 2024)
